According to ChEMBL document CHEMBL6078616, “Seven-membered N-heterocycles as approved drugs and promising leads in medicinal chemistry as well as the metal-free domino access to their scaffolds” (Eur J Med Chem, 2024):

Assays:
[1] = target: T1, Protein deacetylase HDAC6 (Homo sapiens, UniProt Q9UBN7); assay: Inhibition of HDAC6 (unknown origin)
T1 sequence (Q9UBN7 whole entry): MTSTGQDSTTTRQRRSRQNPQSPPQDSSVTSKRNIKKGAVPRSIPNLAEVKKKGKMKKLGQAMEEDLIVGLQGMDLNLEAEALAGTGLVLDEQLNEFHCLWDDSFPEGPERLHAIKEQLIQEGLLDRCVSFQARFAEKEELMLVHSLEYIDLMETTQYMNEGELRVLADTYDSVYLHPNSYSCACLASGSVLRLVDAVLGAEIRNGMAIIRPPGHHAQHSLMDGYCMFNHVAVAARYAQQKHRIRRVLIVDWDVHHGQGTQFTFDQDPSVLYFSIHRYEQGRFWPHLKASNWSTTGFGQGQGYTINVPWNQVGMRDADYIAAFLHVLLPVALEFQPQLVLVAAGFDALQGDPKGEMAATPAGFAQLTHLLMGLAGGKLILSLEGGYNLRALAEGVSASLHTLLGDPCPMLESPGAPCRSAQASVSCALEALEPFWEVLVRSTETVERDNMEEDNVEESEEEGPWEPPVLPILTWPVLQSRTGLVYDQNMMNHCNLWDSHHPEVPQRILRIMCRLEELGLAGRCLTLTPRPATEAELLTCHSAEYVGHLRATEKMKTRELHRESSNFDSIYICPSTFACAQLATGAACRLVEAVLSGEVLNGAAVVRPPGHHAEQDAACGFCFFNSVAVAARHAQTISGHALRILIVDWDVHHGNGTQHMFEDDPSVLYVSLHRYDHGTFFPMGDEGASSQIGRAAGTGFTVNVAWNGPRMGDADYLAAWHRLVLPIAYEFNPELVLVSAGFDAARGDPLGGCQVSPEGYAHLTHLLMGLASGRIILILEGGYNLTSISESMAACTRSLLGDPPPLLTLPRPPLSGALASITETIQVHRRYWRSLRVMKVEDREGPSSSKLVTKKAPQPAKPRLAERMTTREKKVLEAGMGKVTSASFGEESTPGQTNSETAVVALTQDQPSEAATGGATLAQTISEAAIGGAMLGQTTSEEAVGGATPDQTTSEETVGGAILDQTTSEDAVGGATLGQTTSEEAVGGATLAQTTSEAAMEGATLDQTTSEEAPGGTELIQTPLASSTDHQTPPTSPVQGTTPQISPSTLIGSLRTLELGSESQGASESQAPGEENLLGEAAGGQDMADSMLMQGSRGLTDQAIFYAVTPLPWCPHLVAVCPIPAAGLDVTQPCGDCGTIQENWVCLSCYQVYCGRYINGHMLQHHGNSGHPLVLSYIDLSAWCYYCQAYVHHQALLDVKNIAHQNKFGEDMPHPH

Histone deacetylase 7 = target: T2, Histone deacetylase 7 (Homo sapiens, UniProt Q8WUI4); assay: Inhibition of HDAC7 (unknown origin)
T2 sequence (Q8WUI4 whole entry): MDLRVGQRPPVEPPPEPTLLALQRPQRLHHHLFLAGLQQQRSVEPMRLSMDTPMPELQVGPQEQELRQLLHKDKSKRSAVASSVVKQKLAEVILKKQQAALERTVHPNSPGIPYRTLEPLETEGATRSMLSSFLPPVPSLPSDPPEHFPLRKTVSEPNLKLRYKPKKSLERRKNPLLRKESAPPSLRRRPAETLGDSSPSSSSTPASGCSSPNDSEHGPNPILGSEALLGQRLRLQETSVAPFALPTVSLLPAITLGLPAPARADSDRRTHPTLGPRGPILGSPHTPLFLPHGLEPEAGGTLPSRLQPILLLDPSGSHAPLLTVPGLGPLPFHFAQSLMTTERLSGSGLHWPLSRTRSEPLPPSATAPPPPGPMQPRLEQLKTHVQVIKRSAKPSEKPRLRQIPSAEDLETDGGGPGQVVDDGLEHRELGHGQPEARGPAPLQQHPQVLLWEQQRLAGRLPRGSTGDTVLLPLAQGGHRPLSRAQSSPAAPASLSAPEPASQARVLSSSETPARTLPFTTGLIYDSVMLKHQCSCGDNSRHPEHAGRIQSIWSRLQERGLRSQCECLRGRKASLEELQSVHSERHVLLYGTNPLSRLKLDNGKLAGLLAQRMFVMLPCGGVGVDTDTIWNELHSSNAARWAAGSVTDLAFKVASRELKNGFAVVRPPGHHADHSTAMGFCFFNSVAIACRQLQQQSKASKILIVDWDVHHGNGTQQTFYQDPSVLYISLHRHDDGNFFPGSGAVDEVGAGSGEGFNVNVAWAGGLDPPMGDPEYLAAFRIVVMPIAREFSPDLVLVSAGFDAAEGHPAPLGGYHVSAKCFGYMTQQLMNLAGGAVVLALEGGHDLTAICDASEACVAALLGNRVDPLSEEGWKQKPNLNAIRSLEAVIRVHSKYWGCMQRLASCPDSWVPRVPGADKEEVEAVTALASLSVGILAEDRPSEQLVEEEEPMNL

Histone deacetylase 1 = Histone deacetylase 1 (Homo sapiens, UniProt Q13547); assay: Inhibition of HDAC1 (unknown origin)
Histone deacetylase 11 = target: T3, Histone deacetylase 11 (Homo sapiens, UniProt Q96DB2); assay: Inhibition of HDAC11 (unknown origin)
T3 sequence (Q96DB2 whole entry): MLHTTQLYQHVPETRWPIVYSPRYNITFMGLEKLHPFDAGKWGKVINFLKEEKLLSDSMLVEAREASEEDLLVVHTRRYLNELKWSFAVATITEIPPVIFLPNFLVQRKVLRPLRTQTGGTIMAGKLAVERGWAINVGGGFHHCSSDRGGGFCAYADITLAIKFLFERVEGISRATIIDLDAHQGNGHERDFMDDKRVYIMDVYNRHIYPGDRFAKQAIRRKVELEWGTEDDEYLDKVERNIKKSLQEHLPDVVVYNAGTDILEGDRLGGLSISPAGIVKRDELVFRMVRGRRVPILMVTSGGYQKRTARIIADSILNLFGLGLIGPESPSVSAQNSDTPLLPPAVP

Histone deacetylase 9 = Histone deacetylase 9 (Homo sapiens, UniProt Q9UKV0); assay: Inhibition of HDAC9 (unknown origin)
Histone deacetylase 8 = target: T4, Histone deacetylase 8 (Homo sapiens, UniProt Q9BY41); assay: Inhibition of HDAC8 (unknown origin)
T4 sequence (Q9BY41 whole entry): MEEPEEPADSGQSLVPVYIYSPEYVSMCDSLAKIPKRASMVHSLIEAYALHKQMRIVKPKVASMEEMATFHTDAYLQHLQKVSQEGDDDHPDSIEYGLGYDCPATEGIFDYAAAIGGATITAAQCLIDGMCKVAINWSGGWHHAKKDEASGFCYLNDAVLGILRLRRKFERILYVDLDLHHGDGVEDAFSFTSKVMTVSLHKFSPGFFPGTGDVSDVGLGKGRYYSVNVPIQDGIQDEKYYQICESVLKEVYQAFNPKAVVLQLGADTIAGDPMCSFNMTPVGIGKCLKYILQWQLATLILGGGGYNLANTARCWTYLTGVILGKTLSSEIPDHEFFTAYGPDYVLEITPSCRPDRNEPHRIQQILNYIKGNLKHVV

Histone deacetylase 5 = Histone deacetylase 5 (Homo sapiens, UniProt Q9UQL6); assay: Inhibition of HDAC5 (unknown origin)
Histone deacetylase 5, sequence (Q9UQL6 whole entry): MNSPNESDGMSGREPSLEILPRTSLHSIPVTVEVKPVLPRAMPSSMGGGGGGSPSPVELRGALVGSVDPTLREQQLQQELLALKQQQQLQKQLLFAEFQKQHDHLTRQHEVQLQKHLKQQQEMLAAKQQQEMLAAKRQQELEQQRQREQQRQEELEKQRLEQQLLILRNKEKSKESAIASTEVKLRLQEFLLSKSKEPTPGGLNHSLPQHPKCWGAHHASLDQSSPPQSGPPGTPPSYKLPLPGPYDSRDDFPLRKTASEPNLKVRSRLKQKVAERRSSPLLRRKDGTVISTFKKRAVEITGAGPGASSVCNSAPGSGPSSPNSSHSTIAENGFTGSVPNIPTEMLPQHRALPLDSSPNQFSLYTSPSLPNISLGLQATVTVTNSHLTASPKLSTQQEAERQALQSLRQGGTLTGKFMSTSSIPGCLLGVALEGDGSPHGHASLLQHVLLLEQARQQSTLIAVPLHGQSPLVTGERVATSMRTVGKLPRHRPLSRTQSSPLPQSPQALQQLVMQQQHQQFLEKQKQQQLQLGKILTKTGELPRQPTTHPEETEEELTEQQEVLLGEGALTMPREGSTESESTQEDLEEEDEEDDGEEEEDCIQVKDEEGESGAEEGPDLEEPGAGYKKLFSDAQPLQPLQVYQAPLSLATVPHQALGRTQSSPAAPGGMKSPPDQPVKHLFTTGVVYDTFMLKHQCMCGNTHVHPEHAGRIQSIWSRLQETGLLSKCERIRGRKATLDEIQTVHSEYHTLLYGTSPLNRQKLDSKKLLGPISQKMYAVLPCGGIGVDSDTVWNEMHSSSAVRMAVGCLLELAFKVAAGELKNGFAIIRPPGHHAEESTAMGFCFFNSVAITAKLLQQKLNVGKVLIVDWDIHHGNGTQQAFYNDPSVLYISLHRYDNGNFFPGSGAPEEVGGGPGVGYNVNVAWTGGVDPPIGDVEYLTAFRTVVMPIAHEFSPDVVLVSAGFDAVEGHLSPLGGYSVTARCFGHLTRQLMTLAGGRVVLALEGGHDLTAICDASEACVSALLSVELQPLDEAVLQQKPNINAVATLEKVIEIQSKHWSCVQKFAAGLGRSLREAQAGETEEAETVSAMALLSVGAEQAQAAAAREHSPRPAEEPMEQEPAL

Histone deacetylase 9, sequence (Q9UKV0 whole entry): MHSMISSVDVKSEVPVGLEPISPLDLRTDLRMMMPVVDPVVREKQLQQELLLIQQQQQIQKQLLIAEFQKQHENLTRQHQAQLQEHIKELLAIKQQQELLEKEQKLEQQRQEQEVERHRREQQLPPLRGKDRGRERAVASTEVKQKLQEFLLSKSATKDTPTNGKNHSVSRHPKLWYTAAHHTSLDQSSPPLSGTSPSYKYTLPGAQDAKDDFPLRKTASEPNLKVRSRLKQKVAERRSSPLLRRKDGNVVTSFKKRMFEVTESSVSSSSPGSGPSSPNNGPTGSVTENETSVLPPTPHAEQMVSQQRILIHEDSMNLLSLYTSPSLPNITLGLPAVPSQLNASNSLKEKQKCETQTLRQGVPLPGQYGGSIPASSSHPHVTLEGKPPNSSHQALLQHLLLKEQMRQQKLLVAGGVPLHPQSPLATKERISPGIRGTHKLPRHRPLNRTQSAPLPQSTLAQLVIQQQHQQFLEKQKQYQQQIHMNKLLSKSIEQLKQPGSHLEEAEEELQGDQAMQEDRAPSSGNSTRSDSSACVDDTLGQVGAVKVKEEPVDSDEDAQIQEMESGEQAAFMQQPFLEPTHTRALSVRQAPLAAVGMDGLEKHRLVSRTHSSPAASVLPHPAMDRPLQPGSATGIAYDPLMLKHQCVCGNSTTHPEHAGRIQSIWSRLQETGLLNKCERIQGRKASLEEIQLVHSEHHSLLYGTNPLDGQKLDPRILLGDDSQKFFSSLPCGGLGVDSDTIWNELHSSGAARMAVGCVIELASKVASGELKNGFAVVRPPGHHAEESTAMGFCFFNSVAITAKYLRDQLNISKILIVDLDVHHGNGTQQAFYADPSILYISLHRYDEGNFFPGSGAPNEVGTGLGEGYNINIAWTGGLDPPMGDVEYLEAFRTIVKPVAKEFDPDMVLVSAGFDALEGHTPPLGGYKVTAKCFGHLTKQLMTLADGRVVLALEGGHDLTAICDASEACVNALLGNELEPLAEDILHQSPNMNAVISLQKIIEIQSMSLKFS
Histone deacetylase 1, sequence (Q13547 whole entry): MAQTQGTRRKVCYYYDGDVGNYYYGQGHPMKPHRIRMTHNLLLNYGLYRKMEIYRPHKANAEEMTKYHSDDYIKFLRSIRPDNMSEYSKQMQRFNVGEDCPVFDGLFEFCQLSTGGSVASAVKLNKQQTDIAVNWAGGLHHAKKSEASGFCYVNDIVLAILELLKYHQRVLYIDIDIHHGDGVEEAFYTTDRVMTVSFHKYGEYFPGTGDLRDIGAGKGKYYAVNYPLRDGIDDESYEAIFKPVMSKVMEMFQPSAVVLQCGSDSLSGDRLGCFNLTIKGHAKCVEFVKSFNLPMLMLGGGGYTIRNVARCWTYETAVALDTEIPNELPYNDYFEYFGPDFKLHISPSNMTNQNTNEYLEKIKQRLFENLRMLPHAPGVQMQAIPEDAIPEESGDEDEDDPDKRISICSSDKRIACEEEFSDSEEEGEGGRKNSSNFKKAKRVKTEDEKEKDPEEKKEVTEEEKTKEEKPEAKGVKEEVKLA

IC50 [1]: 100 nM
IC50 (Histone deacetylase 7): > 30 µM
IC50 (Histone deacetylase 1): 4.9 µM
IC50 (Histone deacetylase 11): 540 nM
IC50 (Histone deacetylase 9): 8.9 µM
IC50 (Histone deacetylase 8): 2900 nM
IC50 (Histone deacetylase 5): 12 µM
Structure (SMILES): O=C(NO)c1ccc(CN2c3ccccc3[S+]([O-])C[C@H]3CCCC[C@H]32)cc1 (some centres not stated)
